Measurements taken from patent publication US20250223300A1, “MACROCYCLIC COMPOUND AND PHARMACEUTICAL COMPOSITION AND USE THEREOF” (BETTA PHARMACEUTICALS CO., LTD, priority 2022, published 2025).

Experiments:
Type in all cases: cell-based
[1] = target: Ba/F3 (EGFR Del19/C797S) (Homo sapiens, UniProt P00533, C797S, cells depend on it, form not given); experiment: Cell proliferation inhibitory activity assay, Ba/F3 EGFR Del19/C797S; conditions: cell proliferation inhibition, 72 hours, luminescence; read-out: Ba/F3 cells overexpressing different EGFR mutations IC50 (nM) Del19/C797S
Chain of Ba/F3 (EGFR Del19/C797S) (P00533 with tags, fused parts or gaps DEL746-750/C797S, form open): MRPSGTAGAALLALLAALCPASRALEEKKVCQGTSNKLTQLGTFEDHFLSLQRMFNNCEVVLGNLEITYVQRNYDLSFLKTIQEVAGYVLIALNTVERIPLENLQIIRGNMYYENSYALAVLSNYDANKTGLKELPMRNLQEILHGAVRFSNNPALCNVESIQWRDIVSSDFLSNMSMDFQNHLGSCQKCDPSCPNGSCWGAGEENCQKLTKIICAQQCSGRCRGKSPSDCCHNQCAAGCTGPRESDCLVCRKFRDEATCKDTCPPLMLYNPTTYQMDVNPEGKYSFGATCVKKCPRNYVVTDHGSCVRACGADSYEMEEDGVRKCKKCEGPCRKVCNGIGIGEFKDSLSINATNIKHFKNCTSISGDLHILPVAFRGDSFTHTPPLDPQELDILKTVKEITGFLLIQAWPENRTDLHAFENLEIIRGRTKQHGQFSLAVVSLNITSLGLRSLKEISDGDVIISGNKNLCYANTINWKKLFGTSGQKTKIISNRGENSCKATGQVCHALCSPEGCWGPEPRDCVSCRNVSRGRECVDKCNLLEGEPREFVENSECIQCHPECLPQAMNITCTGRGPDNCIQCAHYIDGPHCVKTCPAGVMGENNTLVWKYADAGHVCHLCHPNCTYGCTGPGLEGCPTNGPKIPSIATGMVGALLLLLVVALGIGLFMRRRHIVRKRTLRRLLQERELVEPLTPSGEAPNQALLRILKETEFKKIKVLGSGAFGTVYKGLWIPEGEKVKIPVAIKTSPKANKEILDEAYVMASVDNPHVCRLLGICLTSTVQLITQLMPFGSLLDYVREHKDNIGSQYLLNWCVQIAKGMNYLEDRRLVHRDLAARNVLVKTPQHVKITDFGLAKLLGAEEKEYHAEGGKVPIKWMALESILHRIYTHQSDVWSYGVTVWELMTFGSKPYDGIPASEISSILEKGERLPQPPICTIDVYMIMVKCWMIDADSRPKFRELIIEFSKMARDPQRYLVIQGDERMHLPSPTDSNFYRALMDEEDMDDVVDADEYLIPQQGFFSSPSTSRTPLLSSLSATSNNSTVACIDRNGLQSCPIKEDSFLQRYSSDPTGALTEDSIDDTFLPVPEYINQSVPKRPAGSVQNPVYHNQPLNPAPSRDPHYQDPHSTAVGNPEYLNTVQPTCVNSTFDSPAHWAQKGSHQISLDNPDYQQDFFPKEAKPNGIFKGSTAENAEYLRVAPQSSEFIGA
Procedure: (§1) Suspension cells Ba/F3 (EGFR. Dell9/T790M/C797S), Ba/F3 (EGFR L858R/T790M/C797S), Ba/F3 (EGFR Del19/C797S), and Ba/F3 (EGFR L858R/C797S) overexpressing different EGFR mutations were cultured in PRMI 1640 containing 10% FBS and 1% PS, and adherent cells A431 carrying EGFR WT were cultured in DMEM containing 10% FBS and 1% PS. The experimental steps for compound activity detection are as follows: • (1) Take adherent cells in the logarithmic growth phase, digest them with trypsin count them, and then inoculate them into a 96-well plate at a certain density. Incubate them overnight at 37° C. and 5% CO2 to allow them to adhere.
(§2) Y=minimum+([…])/(1+10^((Log IC50−X)*slope)); • X: logarithm of compound concentration; Y: cell survival inhibition rate.

[2] = system: A431 cell carrying EGFR WT; experiment: Cell proliferation inhibitory activity assay, A431; conditions: Homo sapiens, A-431; cell proliferation inhibition, 72 hours, luminescence
Procedure: as §1, §2

[3] = target: Ba/F3 (EGFR L858R/T790M/C797S) (Homo sapiens, UniProt P00533, T790M/C797S/L858R, cells depend on it); experiment: Cell proliferation inhibitory activity assay, Ba/F3 EGFR L858R/T790M/C797S; conditions: cell proliferation inhibition, 72 hours, luminescence; read-out: Ba/F3 cells overexpressing different EGFR mutations IC50 (nM) L858R/T790M/C797S
Chain of Ba/F3 (EGFR L858R/T790M/C797S) (P00533 whole entry T790M/C797S/L858R): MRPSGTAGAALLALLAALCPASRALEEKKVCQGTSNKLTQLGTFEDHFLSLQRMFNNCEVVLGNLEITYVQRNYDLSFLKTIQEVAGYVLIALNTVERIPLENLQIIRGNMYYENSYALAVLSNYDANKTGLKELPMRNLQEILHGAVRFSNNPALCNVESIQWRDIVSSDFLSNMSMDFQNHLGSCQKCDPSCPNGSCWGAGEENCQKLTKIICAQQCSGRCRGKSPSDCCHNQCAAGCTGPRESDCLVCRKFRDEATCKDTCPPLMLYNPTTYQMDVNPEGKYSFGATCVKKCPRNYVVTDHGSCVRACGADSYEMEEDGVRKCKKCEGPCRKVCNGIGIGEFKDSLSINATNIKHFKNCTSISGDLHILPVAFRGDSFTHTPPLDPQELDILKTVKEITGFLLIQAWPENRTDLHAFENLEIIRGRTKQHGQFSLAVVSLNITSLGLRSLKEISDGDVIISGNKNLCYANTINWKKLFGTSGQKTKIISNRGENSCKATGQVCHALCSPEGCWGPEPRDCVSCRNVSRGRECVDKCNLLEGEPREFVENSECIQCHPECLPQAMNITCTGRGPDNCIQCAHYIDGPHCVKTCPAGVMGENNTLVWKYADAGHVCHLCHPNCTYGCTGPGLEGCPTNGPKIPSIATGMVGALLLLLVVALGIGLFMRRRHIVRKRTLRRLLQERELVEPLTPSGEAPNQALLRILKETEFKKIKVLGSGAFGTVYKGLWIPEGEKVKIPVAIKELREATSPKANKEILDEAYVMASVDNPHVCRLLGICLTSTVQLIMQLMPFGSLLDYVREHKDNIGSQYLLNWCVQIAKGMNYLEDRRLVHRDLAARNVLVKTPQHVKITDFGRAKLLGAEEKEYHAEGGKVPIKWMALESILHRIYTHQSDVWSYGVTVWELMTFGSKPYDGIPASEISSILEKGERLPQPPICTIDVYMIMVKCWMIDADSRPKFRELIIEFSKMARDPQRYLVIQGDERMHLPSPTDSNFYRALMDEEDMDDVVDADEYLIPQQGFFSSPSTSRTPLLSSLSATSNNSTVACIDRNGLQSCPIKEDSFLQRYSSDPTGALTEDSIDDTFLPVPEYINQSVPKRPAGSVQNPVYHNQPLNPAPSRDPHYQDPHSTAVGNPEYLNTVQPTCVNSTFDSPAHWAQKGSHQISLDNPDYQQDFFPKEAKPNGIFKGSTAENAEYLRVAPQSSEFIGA
Procedure: as §1, §2

[4] = target: Ba/F3 (EGFR L858R/C797S) (Homo sapiens, UniProt P00533, C797S/L858R, cells depend on it); experiment: Cell proliferation inhibitory activity assay, Ba/F3 EGFR L858R/C797S; conditions: cell proliferation inhibition, 72 hours, luminescence; read-out: Ba/F3 cells overexpressing different EGFR mutations IC50 (nM) L858R/C797S
Chain of Ba/F3 (EGFR L858R/C797S) (P00533 whole entry C797S/L858R): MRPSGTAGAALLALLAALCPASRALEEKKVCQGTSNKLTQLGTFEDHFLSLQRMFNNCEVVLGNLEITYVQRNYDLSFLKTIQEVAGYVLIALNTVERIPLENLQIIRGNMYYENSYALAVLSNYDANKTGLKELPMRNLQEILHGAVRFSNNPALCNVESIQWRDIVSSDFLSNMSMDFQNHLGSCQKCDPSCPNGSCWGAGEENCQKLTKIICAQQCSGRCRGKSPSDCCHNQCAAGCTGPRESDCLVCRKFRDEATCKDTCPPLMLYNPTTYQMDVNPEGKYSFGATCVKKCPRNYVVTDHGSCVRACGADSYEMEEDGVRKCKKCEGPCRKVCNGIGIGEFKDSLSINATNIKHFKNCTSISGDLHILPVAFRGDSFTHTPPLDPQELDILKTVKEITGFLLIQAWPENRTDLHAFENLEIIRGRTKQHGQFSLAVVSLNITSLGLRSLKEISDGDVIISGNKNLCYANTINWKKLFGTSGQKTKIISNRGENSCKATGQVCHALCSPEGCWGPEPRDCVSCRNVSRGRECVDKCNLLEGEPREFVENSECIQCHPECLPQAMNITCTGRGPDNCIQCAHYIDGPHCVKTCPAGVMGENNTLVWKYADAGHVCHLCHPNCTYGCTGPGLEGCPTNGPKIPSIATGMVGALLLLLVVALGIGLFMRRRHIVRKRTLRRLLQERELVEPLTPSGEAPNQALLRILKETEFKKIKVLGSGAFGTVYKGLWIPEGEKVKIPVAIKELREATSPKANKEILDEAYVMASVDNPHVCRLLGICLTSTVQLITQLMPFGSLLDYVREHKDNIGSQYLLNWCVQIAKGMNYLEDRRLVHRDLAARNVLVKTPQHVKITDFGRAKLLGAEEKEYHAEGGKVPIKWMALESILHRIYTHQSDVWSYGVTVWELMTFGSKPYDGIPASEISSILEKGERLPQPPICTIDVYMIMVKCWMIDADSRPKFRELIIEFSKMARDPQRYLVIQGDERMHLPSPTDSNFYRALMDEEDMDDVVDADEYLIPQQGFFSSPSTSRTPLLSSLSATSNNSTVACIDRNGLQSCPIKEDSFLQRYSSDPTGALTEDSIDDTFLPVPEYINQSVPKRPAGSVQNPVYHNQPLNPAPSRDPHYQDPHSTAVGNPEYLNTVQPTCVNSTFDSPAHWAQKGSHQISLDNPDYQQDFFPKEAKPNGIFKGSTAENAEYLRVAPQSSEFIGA
Procedure: as §1, §2

[5] = target: Ba/F3 cells overexpressing EGFR Del19/T790M/C797S (Homo sapiens, UniProt P00533, T790M/C797S, cells depend on it, form not given); experiment: Cell proliferation inhibitory activity assay, Ba/F3 EGFR Del19/T790M/C797S; conditions: cell proliferation inhibition, 72 hours, luminescence; read-out: Ba/F3 cells overexpressing different EGFR mutations IC50 (nM) Del19/T790M/C797S
Chain of Ba/F3 cells overexpressing EGFR Del19/T790M/C797S (P00533 with tags, fused parts or gaps DEL746-750/T790M/C797S, form open): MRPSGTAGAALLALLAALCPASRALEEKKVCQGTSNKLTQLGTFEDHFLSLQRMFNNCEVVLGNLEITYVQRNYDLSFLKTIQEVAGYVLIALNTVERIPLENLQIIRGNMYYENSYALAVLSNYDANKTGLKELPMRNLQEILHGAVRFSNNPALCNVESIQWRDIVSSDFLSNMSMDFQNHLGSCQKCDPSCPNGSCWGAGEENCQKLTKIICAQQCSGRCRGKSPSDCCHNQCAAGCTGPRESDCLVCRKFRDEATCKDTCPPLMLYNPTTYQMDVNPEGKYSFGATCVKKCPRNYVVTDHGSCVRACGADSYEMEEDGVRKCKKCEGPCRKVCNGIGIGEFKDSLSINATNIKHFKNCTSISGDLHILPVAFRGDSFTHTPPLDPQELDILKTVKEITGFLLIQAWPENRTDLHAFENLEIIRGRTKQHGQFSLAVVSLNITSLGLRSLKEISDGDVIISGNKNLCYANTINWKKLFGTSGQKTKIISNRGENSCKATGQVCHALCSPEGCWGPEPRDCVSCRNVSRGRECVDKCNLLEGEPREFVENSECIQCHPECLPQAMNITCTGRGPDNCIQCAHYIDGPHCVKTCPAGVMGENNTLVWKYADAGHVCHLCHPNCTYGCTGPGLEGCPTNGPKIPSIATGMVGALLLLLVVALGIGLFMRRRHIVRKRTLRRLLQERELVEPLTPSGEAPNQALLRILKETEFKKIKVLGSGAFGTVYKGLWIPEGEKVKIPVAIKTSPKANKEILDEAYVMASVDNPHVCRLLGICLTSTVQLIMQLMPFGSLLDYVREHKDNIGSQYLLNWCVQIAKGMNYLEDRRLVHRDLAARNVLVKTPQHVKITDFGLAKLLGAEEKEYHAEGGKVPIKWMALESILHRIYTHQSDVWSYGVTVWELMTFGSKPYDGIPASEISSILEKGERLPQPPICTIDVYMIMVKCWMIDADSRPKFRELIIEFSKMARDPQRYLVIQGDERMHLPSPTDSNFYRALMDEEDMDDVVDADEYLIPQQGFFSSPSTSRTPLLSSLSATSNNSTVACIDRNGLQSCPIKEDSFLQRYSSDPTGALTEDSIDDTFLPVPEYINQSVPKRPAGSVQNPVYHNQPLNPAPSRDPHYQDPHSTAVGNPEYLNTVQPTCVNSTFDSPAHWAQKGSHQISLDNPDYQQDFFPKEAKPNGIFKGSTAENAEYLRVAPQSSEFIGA
Procedure: as §1, §2

| SMILES | GI50 [1] [nM] | IC50 [2] [nM] | GI50 [3] [nM] | GI50 [4] [nM] | GI50 [5] [nM] |
| --- | --- | --- | --- | --- | --- |
| Cc1cc2cc(n1)-c1cnccc1OCCC[C@@H](C)Cn1c(nc3ccc(N4CCC5(CC4)CCN(C4CC4)CC5)cc31)NC2=O [Example 45, (R)-5^6-(9-cyclopropyl-3,9-diazaspiro[5.5]undecan-3-yl)-2^6,7-dimethyl-5^1H-11-oxa-4-aza-5(2,1)-benzo [d]imidazola-1(3,4),2(2,4)-dipyridinacyclo-undecaphan-3-one] | 0.27 | 701 | 3.7 | 2.1 | 1.6 |
| Cc1cc2cc(n1)-c1cnccc1OCCC[C@@H](C)Cn1c(nc3cc(C)c(N4CCC5(CCN(C)CC5)CC4)cc31)NC2=O [Example 11, (R)-2^6,5^3,7-trimethyl-5^6-(9-methyl-3,9-diazaspiro[5.5]undecan-3-yl)-5^1H-11-oxa-4-aza-5(2.I)-benzo[d]imidazola-1(3,4),2(2,4)-dipyridinacycloundecaphan-3-one] | 0.15 | 493 | 3.4 | 1 | 2.2 |
| COCCCN1CCC2(CC1)CCN(c1ccc3nc4n(c3c1)C[C@H](C)CCCOc1cc(F)ncc1-c1cc(cc(C)n1)C(=O)N4)CC2 [Example 17, 1^6-fluoro-5^6-(9-(3-methoxypropyl)-3,9-diazaspiro[5.5]undecan-3-yl)-2^6-methyl-5^1H-11-oxa-4-aza-5(2,1)-benzo[d]imidazola-1(3,4),2(2,4)-dipyridinacycloundecaphan-3-one] | 5 | 1470 | 4.7 | 18 | 1.2 |
| Cc1cc2cc(n1)-c1cnccc1OCCCCCn1c(nc3cc(F)c(N4CCC5(CC4)CCN(C4CC4)CC5)cc31)NC2=O [Example 65, 5^6-(9-cyclopropyl-3,9-diazasptro [5.5]undecan-3-yl)-5^5-fluoro-2^6-methyl-5^1H-11-oxa-4-aza-5(2,1)-benzo [d]imidazola-1(3,4),2(2,4)-dipyridinacyclo-undecaphan-3-one] | 0.69 | 1250 | 2.3 | 4.6 | 1.1 |
| Cc1cc2cc(n1)-c1cnccc1OCCC[C@@H](C)Cn1c(nc3ccc(N4CCC5(CC4)CCN(C4COC4C)CC5)cc31)NC2=O (stereo partly drawn) [Example 83, (7R)-2^6,7-dimethyl-5^6-(9-(2-methyloxetan-3-yl)-3,9-diazaspiro [5.5]undecan-3-yl)-5^1H-11-oxa-4-aza-5(2,1)-benzo[d] imidazola-1(3,4),2(2,4)-dipyridinacyclo-undecaphan-3-one] | 0.27 | 294 | 2 | 2 | 1.3 |
| COCCN1CCC2(CC1)CCN(c1ccc3nc4n(c3c1)CCCCCOc1ccncc1-c1cc(cc(C)n1)C(=O)N4)CC2 [Example 75, 5^6-(9-(2-methoxy-ethyl)-3,9-diazaspiro[5.5]undecan-3-yl)-2^6-methyl-5^1H-11-oxa-4-aza-5(2,1)-benzo[d] imidazola-1(3,4), 2(2,4)-dipyridinacyclo-undecaphan-3-one] | 0.11 | 646 | 0.08 | 0.07 | 0.07 |
| Cc1cc2cc(n1)-c1cnccc1OCCCCCn1c(nc3ccc(N4CCC5(CCN(CCN(C)C)CC5)CC4)cc31)NC2=O [Example 87, 5^6-(9-(2-(dimethyl-amino)ethyl)-3,9-diazaspiro [5.5]undecan-3-yl)-2^6-methyl-5^1H-11-oxa-4-aza-5(2,1)-benzo [d]imidazola-1(3,4),2(2,4)-dipyridinacyclo-undecaphan-3-one] | 5.8 | 1410 | 11 | 21 | 5.4 |
| COC(C)(C)CC(C)N1CCC2(CCN(c3ccc4nc5n(c4c3)CCCCCOc3ccncc3-c3cc(cc(C)n3)C(=O)N5)CC2)CC1 (centres unmarked) [Example 90, 5^6-(9-(4-methoxy-4-methylpentan-2-yl)-3,9-diazaspiro[5.5]undecan-3-yl)-2^6-methyl-5^1H-11-oxa-4-aza-5(2,1)-benzo[d] imidazola-1(3,4),2(2,4)-dipyridinacyclo-undecaphan-3-one] | 4 | 733 | 12 | 31 | 4.2 |
| Cc1cc2cc(n1)-c1cnccc1OCCCCCn1c(nc3cc(F)c(N4CCC5(CCN(C)CC5)CC4)cc31)NC2=O [Example 14, 5^5-fluoro-2^6-methyl-5^6-(9-methyl-3,9-diazaspiro[5.5]undecan-3-yl)-5^1H-11-oxa-4-aza-5(2,1)-benzo[d]imidazola-1(3,4),2(2,4)-dipyridinacycloundecaphan-3-one] | 0.18 | 805 | 1.5 | 1.8 | 0.37 |
| Cc1cc2cc(n1)-c1cnccc1OCCCCCn1c(nc3cc(F)c(N4CCC5(CC4)CCN(C4COC4)CC5)cc31)NC2=O [Example 63, 5^5-fluoro-2^6-methyl-5^6-(9-(oxetan-3-yl)-3,9-diazaspiro[5.5]undecan-3-yl)-5^1H-11-oxa-4-aza-5(2,1)-benzo [d]imidazola-1(3,4),2(2,4)-dipyridinacyclo-undecaphan-3-one] | 0.67 | 472 | 1.5 | 2 | 0.5 |
| Cc1cc2cc(n1)-c1cnc(F)cc1OCCC[C@@H](C)Cn1c(nc3ccc(N4CCC5(CCNCC5)CC4)cc31)NC2=O [Example 9, (R)-1^6-fluoro-2^6,7-dimethyl-5^6-(3,9-driazaspiro[3.5]undecan-3-yl)-5^1-11-oxa-4-aza-5(2,1)-benzo[d]imidazola-1(3,4),2(2,4)-dipyridinacycloundecaphan-3-one] | 0.77 | 425 | 1.1 | 3.6 | 0.73 |
| Cc1cc2cc(n1)-c1cnccc1OCCCCCn1c(nc3ccc(N4CCC5(CC4)CCN(C4CC4)CC5)cc31)NC2=O [Example 89, 5^6-(9-cyclopropyl-3,9-diazaspiro [5.5]undecan-3-yl)-2^6-methyl-5^1H-11-oxa-4-aza-5(2,1)-benzo[d] imidazola-1(3,4),2(2,4)-dipyridinacyclo-undecaphan-3-one] | 0.71 | 1210 | 4.6 | 6.5 | 1.8 |
| Cc1cc2cc(n1)-c1cnccc1OCCCC(C)(C)Cn1c(nc3ccc(N4CCC5(CCN(C)CC5)CC4)cc31)NC2=O [Example 7, 2^6,9,9-trimethyl-5^6-(9-methyl-3,9-diazaspiro[5.5]undecan-3-yl)-5^1H-11-oxa-4-aza-5(2,1)-benzo[d]imidazola-1(3,4),2(2,4)-dipyridinacycloundecaphan-3-one] | 4.5 | 226 | 3.7 | 11 | 1.6 |
| Cc1cc2cc(n1)-c1cnccc1OCCCCCn1c(nc3cc(F)c(N4CCC5(CCN(CCF)CC5)CC4)cc31)NC2=O [Example 61, 5^5-fluoro-5^6-(9-(2-fluoroethyl)-3,9-diazaspiro [5.5]undecan-3-yl)-2^6-methyl-5^1H-11-oxa-4-aza-5(2,1)-benzo [d]imidazola-1(3,4),2(2,4)-dipyridinacyclo-undecaphan-3-one] | 0.29 | 1080 | 1.8 | 3 | 0.91 |
| Cc1cc2cc(n1)-c1cnccc1OCCCCCn1c(nc3ccc(N4CCC5(CCN(CCC(N)=O)CC5)CC4)cc31)NC2=O [Example 18, 3-(9-(2^6-methyl-3-oxo-5^1H-11-oxa-4-aza-5(2,1)-benzo[d]imidazola-1(3,4),2(2,4)-dipyridinacycloundecaphane-5^6-yl)-3,9-diazaspiro[5.5]undecan-3-yl)propanamide] | 0.5 | 631 | 2.1 | 3.9 | 0.77 |
| Cc1cc2cc(n1)-c1cnccc1OCCC[C@@H](C)Cn1c(nc3ccc(N4CCC5(CC4)CCN(C4COC4(C)C)CC5)cc31)NC2=O (stereo partly drawn) [Example 82, (7R)-5^6-(9-(2,2-dimethyloxetan-3-yl)-3,9-diazaspiro[5.5]undecan-3-yl)-2^6,7-dimethyl-5^1H-11-oxa-4-aza-5(2,1)-benzo [d]imidazola-1(3,4),2(2,4)-dipyridinacyclo-undecaphan-3-one] | 2.9 | 770 | 12 | 17 | 4.7 |
